The molecules below were run against T1, Full-length, GST-tagged, human CaMKIIδ (Homo sapiens, UniProt Q13557) (assay: CaMKIIδ binding assay (TR-FRET with BODIPY-labeled probe ligand)). Conditions: CaMKIIδ binding assay; activity class per Table 2.
T1 construct: Full-Length, Glutathione-S-Transferase(GST)-Tagged, Human CaMKIIδ was purchased from Carna Biosciences; purchased Carna Biosciences 02-111
Summary of the method: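 Compounds were tested as 4-fold, eight-point series for 1 hr at room temperature, and IC50 was obtained by logistic fitting against a 3 μM parent-compound control. Signal came from displacement of a 300 nM BODIPY ligand from 0.5 nM GST-CaMKIIδ, detected via Tb-anti-GST in calmodulin/Ca2+ (pH 7.6).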

T1 sequence (Q13557 1-478 isoform Q13557-12): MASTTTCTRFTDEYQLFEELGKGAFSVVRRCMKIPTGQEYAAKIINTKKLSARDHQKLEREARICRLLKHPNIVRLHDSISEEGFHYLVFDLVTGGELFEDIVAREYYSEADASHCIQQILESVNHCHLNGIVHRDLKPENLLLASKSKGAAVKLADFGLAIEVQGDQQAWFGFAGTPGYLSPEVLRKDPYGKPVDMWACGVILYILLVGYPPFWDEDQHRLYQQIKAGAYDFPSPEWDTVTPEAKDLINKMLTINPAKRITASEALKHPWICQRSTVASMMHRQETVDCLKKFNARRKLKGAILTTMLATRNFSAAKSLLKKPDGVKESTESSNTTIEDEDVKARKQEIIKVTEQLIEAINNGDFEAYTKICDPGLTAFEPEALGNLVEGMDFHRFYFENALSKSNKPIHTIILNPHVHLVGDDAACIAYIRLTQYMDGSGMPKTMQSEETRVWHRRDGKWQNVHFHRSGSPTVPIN

`C[C@@H](Cn1cnnn1)Oc1cc(-c2cnc(Nc3cn(C4CC5(C4)CN(C4COC(C)(C)OC4)C5)nc3C(F)(F)F)nc2)ccc1Cl` [Example 922, (S)-5-(3-((1-(1H-tetrazol-1-yl)propan-2-yl)oxy)-4-chlorophenyl)-N-(1-(2-(2,2-dimethyl-1,3-dioxan-5-yl)-2-azaspiro[3.3]heptan-6-yl)-3-(trifluoromethyl)-1H-pyrazol-4-yl)pyrimidin-2-amine] and `C[C@@H](Cn1cnnn1)Oc1cc(-c2cnc(Nc3cn(C4CC5(C4)CN(C4CCOC4)C5)nc3C(F)(F)F)nc2)ccc1Cl` (stereo partly drawn) [Example 930, 5-(3-(((S)-1-(1H-tetrazol-1-yl)propan-2-yl)oxy)-4-chlorophenyl)-N-(1-(2-(tetrahydrofuran-3-yl)-2-azaspiro[3.3]heptan-6-yl)-3-(trifluoromethyl)-1H-pyrazol-4-yl)pyrimidin-2-amine] cannot be ordered by IC50: < 10 nM for the first, < 10 nM for the second.

`CC(Cn1cnnn1)Oc1cc(-c2cnc(Nc3cn(CC4(O)CCC(C)(O)CC4)nc3OCC(F)(F)F)nc2)ccc1Cl` [Example 923, trans-1-((4-((5-(3-(((S)-1-(1H-tetrazol-1-yl)propan-2-yl)oxy)-4-chlorophenyl)pyrimidin-2-yl)amino)-3-(2,2,2-trifluoroethoxy)-1H-pyrazol-1-yl)methyl)-4-methylcyclohexane-1,4-diol] and `C[C@@H](Cn1cnnn1)Oc1cc(-c2cnc(Nc3cn(C4CC5(CNC5)C4)nc3OCC(F)(F)F)nc2)ccc1Cl` [Example 925, (S)-5-(3-((1-(1H-tetrazol-1-yl)propan-2-yl)oxy)-4-chlorophenyl)-N-(1-(2-azaspiro[3.3]heptan-6-yl)-3-(2,2,2-trifluoroethoxy)-1H-pyrazol-4-yl)pyrimidin-2-amine] cannot be ordered by IC50: < 10 nM for the first, < 10 nM for the second.

`CC(Cn1cnnn1)Oc1cc(-c2cnc(Nc3cn(CC4(O)CCC(C)(O)CC4)nc3OCC(F)(F)F)nc2)ccc1Cl` [Example 924, cis-1-((4-((5-(3-(((S)-1-(1H-tetrazol-1-yl)propan-2-yl)oxy)-4-chlorophenyl)pyrimidin-2-yl)amino)-3-(2,2,2-trifluoroethoxy)-1H-pyrazol-1-yl)methyl)-4-methylcyclohexane-1,4-diol] and `C[C@@H](Cn1cnnn1)Oc1cc(-c2cnc(Nc3cn(Cc4ccc(=O)[nH]c4)nc3OCC(F)(F)F)nc2)ccc1Cl` [Example 927, (S)-5-((4-((5-(3-((1-(1H-tetrazol-1-yl)propan-2-yl)oxy)-4-chlorophenyl)pyrimidin-2-yl)amino)-3-(2,2,2-trifluoroethoxy)-1H-pyrazol-1-yl)methyl)pyridin-2(1H)-one] cannot be ordered by IC50: < 10 nM for the first, < 10 nM for the second.

First: COc1ccc(Cn2cc(Nc3ncc(-c4ccc(Cl)c(O[C@@H](C)Cn5cnnn5)c4)cn3)c(OCC(F)(F)F)n2)cn1 [Example 926, (S)-5-(3-((1-(1H-tetrazol-1-yl)propan-2-yl)oxy)-4-chlorophenyl)-N-(1-((6-methoxypyridin-3-yl)methyl)-3-(2,2,2-trifluoroethoxy)-1H-pyrazol-4-yl)pyrimidin-2-amine]
Second: COc1cccc(Cn2cc(Nc3ncc(-c4ccc(Cl)c(O[C@@H](C)Cn5cnnn5)c4)cn3)c(OCC(F)(F)F)n2)n1 [Example 928, (S)-5-(3-((1-(1H-tetrazol-1-yl)propan-2-yl)oxy)-4-chlorophenyl)-N-(1-((6-methoxypyridin-2-yl)methyl)-3-(2,2,2-trifluoroethoxy)-1H-pyrazol-4-yl)pyrimidin-2-amine]
The IC50 of the first is lower: < 10 nM for the first, 10 to 100 nM for the second. The first is the more potent here.

For `C[C@@H](Cn1cnnn1)Oc1cc(-c2cnc(Nc3cn(Cc4cccc(=O)[nH]4)nc3OCC(F)(F)F)nc2)ccc1Cl` [Example 929, (S)-6-((4-((5-(3-((1-(1H-tetrazol-1-yl)propan-2-yl)oxy)-4-chlorophenyl)pyrimidin-2-yl)amino)-3-(2,2,2-trifluoroethoxy)-1H-pyrazol-1-yl)methyl)pyridin-2(1H)-one], the IC50 was < 10 nM.
